Source: ChEMBL document CHEMBL5346892, “Design and synthesis of benzochromene derivatives as AcrB inhibitors for the reversal of bacterial multidrug resistance” (Eur J Med Chem, 2023)
The source made the active and inactive calls. The calls are words filed in the database; no cut-off is given here.

Tests used:
Escherichia coli [1] = assay: Synergistic antibacterial activity against wild type Escherichia coli BW25113 assessed as erythromycin MIC at 64 microg/ml incubated for 18 hrs in presence of colistin by broth dilution assay; assay type: functional; details: dose 64 µg/ml
Escherichia coli [2] = assay: Synergistic antibacterial activity against wild type Escherichia coli BW25113 assessed as levofloxacin MIC at 8 microg/ml incubated for 18 hrs in presence of colistin by broth dilution assay; assay type: functional; details: dose 8 µg/ml
Escherichia coli [3] = assay: Synergistic antibacterial activity against wild type Escherichia coli BW25113 assessed as minocycline MIC at 32 microg/ml incubated for 18 hrs in presence of colistin by broth dilution assay; assay type: functional; details: dose 32 µg/ml
Escherichia coli [4] = assay: Synergistic antibacterial activity against wild type Escherichia coli BW25113 assessed as minocycline MIC at 8 microg/ml incubated for 18 hrs in presence of colistin by broth dilution assay; assay type: functional; details: dose 8 µg/ml
Escherichia coli [5] = assay: Synergistic antibacterial activity against wild type Escherichia coli BW25113 assessed as erythromycin MIC at 8 microg/ml incubated for 18 hrs by broth dilution assay; assay type: functional; details: dose 8 µg/ml
Escherichia coli [6] = assay: Synergistic antibacterial activity against wild type Escherichia coli BW25113 assessed as levofloxacin MIC at 128 microg/ml incubated for 18 hrs by broth dilution assay; assay type: functional; details: dose 128 µg/ml
Escherichia coli [7] = assay: Synergistic antibacterial activity against wild type Escherichia coli BW25113 assessed as erythromycin MIC at 8 microg/ml incubated for 18 hrs in presence of colistin by broth dilution assay; assay type: functional; details: dose 8 µg/ml
[8] = biological target: T1, Multidrug efflux pump subunit AcrB (Escherichia coli (strain K12)) (UniProt P31224); assay: Inhibition of Escherichia coli BW25113 AcrB assessed as inhibition of nile red efflux at 50 uM incubated for 15 mins
T1 sequence (whole entry): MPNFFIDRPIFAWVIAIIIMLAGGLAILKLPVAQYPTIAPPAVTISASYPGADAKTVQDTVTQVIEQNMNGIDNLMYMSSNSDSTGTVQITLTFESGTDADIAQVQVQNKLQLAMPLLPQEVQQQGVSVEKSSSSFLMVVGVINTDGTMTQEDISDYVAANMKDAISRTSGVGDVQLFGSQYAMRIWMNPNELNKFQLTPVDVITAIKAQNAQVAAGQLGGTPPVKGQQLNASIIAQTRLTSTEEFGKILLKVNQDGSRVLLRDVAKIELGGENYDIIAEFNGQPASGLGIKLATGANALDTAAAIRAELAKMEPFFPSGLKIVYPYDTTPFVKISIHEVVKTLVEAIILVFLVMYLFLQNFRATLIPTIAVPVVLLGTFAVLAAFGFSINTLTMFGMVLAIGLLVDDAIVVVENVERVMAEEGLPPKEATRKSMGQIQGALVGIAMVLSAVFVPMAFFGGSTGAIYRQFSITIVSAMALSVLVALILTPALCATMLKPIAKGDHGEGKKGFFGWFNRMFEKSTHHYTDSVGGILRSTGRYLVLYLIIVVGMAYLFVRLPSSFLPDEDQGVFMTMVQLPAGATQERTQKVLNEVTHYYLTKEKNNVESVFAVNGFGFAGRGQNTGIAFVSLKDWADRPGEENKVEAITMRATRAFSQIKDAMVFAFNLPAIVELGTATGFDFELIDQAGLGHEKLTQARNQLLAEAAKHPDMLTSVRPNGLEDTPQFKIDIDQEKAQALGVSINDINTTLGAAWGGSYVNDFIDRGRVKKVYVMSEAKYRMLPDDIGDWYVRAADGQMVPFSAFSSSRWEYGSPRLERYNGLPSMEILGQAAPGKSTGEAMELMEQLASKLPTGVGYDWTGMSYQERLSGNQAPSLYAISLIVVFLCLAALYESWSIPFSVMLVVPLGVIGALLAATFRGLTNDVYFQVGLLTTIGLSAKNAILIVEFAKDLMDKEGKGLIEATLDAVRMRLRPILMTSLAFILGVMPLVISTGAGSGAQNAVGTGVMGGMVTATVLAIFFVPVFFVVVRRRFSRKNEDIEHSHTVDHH

Escherichia coli [9] = assay: Synergistic antibacterial activity against wild type Escherichia coli BW25113 assessed as levofloxacin MIC at 16 microg/ml incubated for 18 hrs by broth dilution assay; assay type: functional; details: dose 16 µg/ml
Escherichia coli [10] = assay: Synergistic antibacterial activity against wild type Escherichia coli BW25113 assessed as erythromycin MIC at 16 microg/ml incubated for 18 hrs by broth dilution assay; assay type: functional; details: dose 16 µg/ml
Escherichia coli [11] = assay: Synergistic antibacterial activity against wild type Escherichia coli BW25113 assessed as levofloxacin MIC at 64 microg/ml incubated for 18 hrs in presence of colistin by broth dilution assay; assay type: functional; details: dose 64 µg/ml
Escherichia coli [12] = assay: Synergistic antibacterial activity against wild type Escherichia coli BW25113 assessed as erythromycin MIC at 64 microg/ml incubated for 18 hrs by broth dilution assay; assay type: functional; details: dose 64 µg/ml
Escherichia coli [13] = assay: Synergistic antibacterial activity against wild type Escherichia coli BW25113 assessed as erythromycin MIC at 128 microg/ml incubated for 18 hrs by broth dilution assay; assay type: functional; details: dose 128 µg/ml
Escherichia coli [14] = assay: Synergistic antibacterial activity against wild type Escherichia coli BW25113 assessed as erythromycin MIC at 16 microg/ml incubated for 18 hrs in presence of colistin by broth dilution assay; assay type: functional; details: dose 16 µg/ml
[15] = Toxicity in Caenorhabditis elegans assessed as survival rate at 128 microg/ml measured after 72 hrs by light microscopic analysis; details: at 128 µg/mL
Escherichia coli [16] = assay: Synergistic antibacterial activity against wild type Escherichia coli BW25113 assessed as levofloxacin MIC at 16 microg/ml incubated for 18 hrs in presence of colistin by broth dilution assay; assay type: functional; details: dose 16 µg/ml
Escherichia coli [17] = assay: Synergistic antibacterial activity against wild type Escherichia coli BW25113 assessed as minocycline MIC at 64 microg/ml incubated for 18 hrs by broth dilution assay; assay type: functional; details: dose 64 µg/ml
Escherichia coli [18] = assay: Synergistic antibacterial activity against wild type Escherichia coli BW25113 assessed as levofloxacin MIC at 32 microg/ml incubated for 18 hrs in presence of colistin by broth dilution assay; assay type: functional; details: dose 32 µg/ml
Escherichia coli [19] = assay: Synergistic antibacterial activity against wild type Escherichia coli BW25113 assessed as levofloxacin MIC at 8 microg/ml incubated for 18 hrs by broth dilution assay; assay type: functional; details: dose 8 µg/ml
Escherichia coli [20] = assay: Synergistic antibacterial activity against wild type Escherichia coli BW25113 assessed as minocycline MIC at 16 microg/ml incubated for 18 hrs by broth dilution assay; assay type: functional; details: dose 16 µg/ml
Escherichia coli [21] = assay: Synergistic antibacterial activity against wild type Escherichia coli BW25113 assessed as minocycline MIC at 64 microg/ml incubated for 18 hrs in presence of colistin by broth dilution assay; assay type: functional; details: dose 64 µg/ml
Escherichia coli [22] = assay: Synergistic antibacterial activity against wild type Escherichia coli BW25113 assessed as levofloxacin MIC at 32 microg/ml incubated for 18 hrs by broth dilution assay; assay type: functional; details: dose 32 µg/ml
Escherichia coli [23] = assay: Synergistic antibacterial activity against wild type Escherichia coli BW25113 assessed as erythromycin MIC at 32 microg/ml incubated for 18 hrs in presence of colistin by broth dilution assay; assay type: functional; details: dose 32 µg/ml
Escherichia coli [24] = assay: Synergistic antibacterial activity against wild type Escherichia coli BW25113 assessed as minocycline MIC at 16 microg/ml incubated for 18 hrs in presence of colistin by broth dilution assay; assay type: functional; details: dose 16 µg/ml
Escherichia coli [25] = assay: Synergistic antibacterial activity against wild type Escherichia coli BW25113 assessed as minocycline MIC at 32 microg/ml incubated for 18 hrs by broth dilution assay; assay type: functional; details: dose 32 µg/ml

SMILES	MIC (Escherichia coli [1]) [µg/mL]	MIC (Escherichia coli [2]) [µg/mL]	MIC (Escherichia coli [3]) [µg/mL]	MIC (Escherichia coli [4]) [µg/mL]	MIC (Escherichia coli [5]) [µg/mL]	MIC (Escherichia coli [6]) [µg/mL]	MIC (Escherichia coli [7]) [µg/mL]	inhibition [8]	MIC (Escherichia coli [9]) [µg/mL]	MIC (Escherichia coli [10]) [µg/mL]	MIC (Escherichia coli [11]) [µg/mL]	MIC (Escherichia coli [12]) [µg/mL]	MIC (Escherichia coli [13]) [µg/mL]	survival at 72 h, 128 microg/ml [15] [%]	MIC (Escherichia coli [17]) [µg/mL]	MIC (Escherichia coli [18]) [µg/mL]	MIC (Escherichia coli [19]) [µg/mL]	MIC (Escherichia coli [20]) [µg/mL]	MIC (Escherichia coli [22]) [µg/mL]	MIC (Escherichia coli [25]) [µg/mL]	other results
COc1ccc(OCCCOc2cccc3c4c(c(C(=O)N5CCOCC5)cc23)CCC(C)(C)O4)cc1	16	0.016	0.5	0.5	32	0.032	16	Active	0.032	32	0.032	16	8	90	1	0.032	0.032	2	0.032	2	MIC (Escherichia coli [14]): 16 µg/mL; MIC (Escherichia coli [16]): 0.016 µg/mL; MIC (Escherichia coli [21]): 0.25 µg/mL; MIC (Escherichia coli [23]): 16 µg/mL; MIC (Escherichia coli [24]): 0.5 µg/mL
CC1(C)CCc2c(C(=O)N3CCOCC3)cc3c(OCCCOc4cccc(C(=O)O)c4)cccc3c2O1	4	0.016	0.5	0.5	32	0.016	8	Active	0.016	32	0.008	16	16	90	1	0.016	0.016	2	0.016	1	MIC (Escherichia coli [14]): 4 µg/mL; MIC (Escherichia coli [16]): 0.016 µg/mL; MIC (Escherichia coli [21]): 0.5 µg/mL; MIC (Escherichia coli [23]): 4 µg/mL; MIC (Escherichia coli [24]): 0.5 µg/mL
CC1(C)CCc2c(C(=O)N3CCOCC3)cc3c(OCCSc4ccc([N+](=O)[O-])cc4)cccc3c2O1	4	0.032	1	1	16	0.016	8		0.032	16	0.032	16	16	90	1	0.032	0.016	2	0.016	2	MIC (Escherichia coli [14]): 8 µg/mL; MIC (Escherichia coli [16]): 0.032 µg/mL; MIC (Escherichia coli [21]): 0.5 µg/mL; MIC (Escherichia coli [23]): 4 µg/mL; MIC (Escherichia coli [24]): 1 µg/mL
CC1(C)CCc2c(C(=O)N3CCOCC3)cc3c(OCCN4CCN(c5ccccc5)CC4)cccc3c2O1		0.032		0.5	32	0.016	4	Active	0.016	32	0.032	32	16	90	2	0.032	0.032	2	0.016	2	
